Tests used:
K562 target cells = test: Flow-cytometry based killing assay, human Vγ9Vδ2 gammadelta T cells with K562 target cells; format: cell-based; conditions: 10 μM, killing assessed after 24 hours, vs EtOH carrier control
Method: FIG. 12. GLI1 is important for tumour cell killing of human Vγ9Vδ2 gammadelta T cells and treatment with L-type voltage gated Ca2+ channel agonist FPL 64176 increases killing capacity. PBMCs were isolated from Buffy Coats of healthy donors using SepMate PBMC Isolation Tubes. Vγ9Vδ2 expansion was induced by plating PBMCs at 1×10^6 concentration with 1 μM of Zoledronate in the presence of 100 IU/mL IL-2 and 120 IU/mL IL-15. Cells were split every 2-3 days from day 6 until day 20. Killing assays were conducted between day 16-20. (A) Vγ9Vδ2 T lymphocytes were incubated with Gli1/2 inhibitor GANT61 or EToH (carrier control) overnight and subsequently co-cultured with K562 target cells for 24 h at the indicated effector to target ratios and subjected to a flow-cytometry based killing assay. n=1 individual donor. (B) Vγ9Vδ2 cells were pre-incubated with 10 μM FPL 64176 or EToH (carrier control) before being co-cultured with K562 target cells at indicated effector to target ratios and subjected to a flowcytometric cytotoxicity assay in the presence of 10 μM FPL 64176 or EToH (carrier control). Killing was assessed after 24 hours. Tumour cell killing normalised to carrier treated cells at a 10:1 effector:target ratio. n=4 individual healthy donors from 2 independent experiments. […]

CD8+ T cells = test: Flow cytometric analysis of viability, proliferation and memory subsets of CD8+ T cells; format: cell-based; conditions: 10 μM, 24 h
Method: FIG. 11. […] Naïve CD8+ T cells were stimulated with plate-bound anti-CD3/CD28 antibodies for 24 h in the presence of 10 μM FPL64176 or carrier control before flow cytometric analysis (FIG. 11A-D). (A) Quantitative analysis of live cell numbers. (B) Percentage of cells positive for the apoptotic marker Apotracker™ Green. (C) Percentage of cells positive for cell viability dye DAPI. (D) Analysis of T cell subsets based on the expression of CD44 and CD62L: CD44− CD62L+ (naïve), CD44+ CD62L+ (central memory), and CD44+ CD62L− (effector memory). (FIG. 11E-G) CTLs were restimulated on day 10 with plate-bound anti-CD3 antibody for 24 h in the presence of 10 μM FPL64176 or carrier control before flow cytometric analysis. (E) Quantitative analysis of live cell numbers. (F) Percentage of cells positive for the apoptotic marker Apotracker™ Green. (G) Percentage of cells positive for the cell viability dye DAPI. […]
To ensure that the use of L-type Cav agonist is not adversely affecting immune cells, general cell functions were assessed. […]

MC38-Ova tumour = test: Adoptive transfer of agonist-treated OTI T cells into MC38-Ova tumour bearing Rag2 KO mice, Cleaved Caspase 3 immunohistochemistry; format: in vivo; conditions: T cells re-stimulated in vitro with agonist before transfer; tumours excised 24 hours after transfer
Method: FIG. 13. […] Cytotoxic OTI T cells were re-stimulated in vitro in the presence of FPL 64176 or carrier control before adoptive transfer into MC38-Ova tumour bearing Rag2 KO mice via tail vein injection. 24 hours after the adoptive transfer, tumours were excised and analysed by immunohistochemistry for Cleaved Caspase 3 (A). 3 mice per condition, % CC3 over whole tumour area from all mice. (B) Repeat experiment with 3-4 mice per condition. Each data point represents the average CC3 staining of 3 separate tumour sections. Overall CC3 staining (top panel) and weak, moderate, and strong CC3 staining (bottom row), respectively, are shown.
As described above, the present invention may find use in adoptive transfer. To investigate the applicability of Cav channel agonist treatment in an adoptive transfer treatment regime, cytotoxic OTI T cells were re-stimulated in vitro in the presence of FPL 64176 or carrier control before adoptive transfer into MC38-Ova tumour bearing Rag2 KO mice via tail vein injection. 24 hours after the adoptive transfer, tumours were excised and analysed by immunohistochemistry for Cleaved Caspase 3. FIGS. 13A&B indicate that treatment of tumour-specific T cells with a Cav channel agonist prior to adoptive transfer leads to increased tumour cell killing compared to adoptive transfer with T cells that have not been treated with a Cav channel agonist.

SMILES: COC(=O)c1c(C)[nH]c(C)c1C(=O)c1ccccc1Cc1ccccc1 [FPL 64176]
- killing by gammadelta T cells (K562 target cells): increased killing
- memory phenotypes (CD44/CD62L subsets) (CD8+ T cells; naïve CD8+ T cells stimulated with anti-CD3/CD28): does not affect
- viability or proliferation of naïve and cytotoxic CD8+ T cells (CD8+ T cells; live cell numbers, Apotracker Green, DAPI): does not impair
- tumour cell death in vivo (Cleaved Caspase 3 staining) (MC38-Ova tumour): increased tumour cell death

Reference: US20250222028A1, “ENGINEERED IMMUNE CELL PLATFORM” (Cancer Research Technology Limited, priority 2022, published 2025)
